Experimental data: publication PMC3482625 (Analytical chemistry, 2011)

Biological target: Matrix metalloproteinase-9 (MMP-9) (Homo sapiens, UniProt P14780)
Experiment: fluorogenic peptide
Format: biochemical

Chain of Matrix metalloproteinase-9 (MMP-9) (P14780 107-707): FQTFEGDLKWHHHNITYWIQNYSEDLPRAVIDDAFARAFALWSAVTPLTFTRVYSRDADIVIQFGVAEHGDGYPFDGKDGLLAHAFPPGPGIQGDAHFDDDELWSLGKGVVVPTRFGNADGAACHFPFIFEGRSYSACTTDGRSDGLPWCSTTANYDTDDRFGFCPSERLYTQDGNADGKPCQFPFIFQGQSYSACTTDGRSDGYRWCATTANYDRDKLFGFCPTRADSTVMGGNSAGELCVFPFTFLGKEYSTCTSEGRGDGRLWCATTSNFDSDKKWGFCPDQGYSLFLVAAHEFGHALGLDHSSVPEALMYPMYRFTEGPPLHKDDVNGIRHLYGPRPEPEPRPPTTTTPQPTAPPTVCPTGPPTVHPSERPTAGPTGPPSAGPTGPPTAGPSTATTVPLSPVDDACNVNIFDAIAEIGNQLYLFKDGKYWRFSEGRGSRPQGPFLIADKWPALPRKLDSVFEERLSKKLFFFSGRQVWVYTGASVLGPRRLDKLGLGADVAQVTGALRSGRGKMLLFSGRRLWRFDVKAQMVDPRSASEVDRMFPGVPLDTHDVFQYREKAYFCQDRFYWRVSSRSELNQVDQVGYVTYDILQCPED

- IC50: 0.0119 ± 0.001 µM
Structure (SMILES): CC(C)(NS(=O)(=O)c1ccc(Oc2ccc(F)cc2)cc1)C(=O)NO [CP471474]
